Values quoted from earlier work in patent publication US9259452B2, “Deacetylase inhibitor therapy” (Celgene Corporation, priority 2006, dated 2016).
Read-outs that look alike come from different tables or passages of the source.

Conditions: cited from earlier work; for ECG effects reported: clinical trials

In the case of `Cc1[nH]c2ccccc2c1CCNCc1ccc(/C=C/C(=O)NO)cc1` [LBH589], the “Patients with QTc prolongation of greater than 500 ms” value (12 patients treated at higher dose levels) is listed as 42% and the “Patients with QTc prolongation of greater than 500 ms” value (of 12 patients treated at higher dose levels) is listed as 5.

For `O=C(/C=C/c1ccc(CN(CCO)CCc2cc3ccccc3[nH]2)cc1)NO` [LAQ824], the “Change in QTc interval” value (77 patients treated) is listed as “statistically significant increase”, the ECG effects reported is listed as “non-specific T-wave or ST segment abnormalities” and the “Patients having QTc prolongation of greater than 60 ms” value (of 77 patients treated) is listed as 10%. For the same molecule, the “Event in one patient with QTc greater than 500 ms” value (when re-treated at a lower dose level) was “torsades de pointes”.

For `O=C(/C=C/c1cccc(S(=O)(=O)Nc2ccccc2)c1)NO` [PXD101], the Supraventricular tachycardia reported (phase I trials) is given as “dose limiting toxicity”.

In the case of `O=C(CCCCCCC(=O)Nc1ccccc1)NO` [SAHA, Suberoylanilide Hydroxamic Acid], the ECG effects reported is listed as “non-specific T-wave or ST segment abnormalities”.
